Experimental data as given in ChEMBL document CHEMBL3045512, “Synthesis of some novel triazoloquinazolines and triazinoquinazolines and their evaluation for anti-inflammatory activity” (Med Chem Res, 2012).

Legend:
Mus musculus [1] = test: Toxicity in Mus musculus albino (mouse) assessed as GPx activity per gram of Hb at 300 mg/kg, po for 10 days (Rvb =179.16 +/- 10.45 U/g Hb); type: organism-based; set-up: dose 300 mg/kg, route oral; settings: in vivo, 240 h
Mus musculus [2] = test: Toxicity in Mus musculus albino (mouse) assessed as SOD activity per gram of Hb at 300 mg/kg, po for 10 days (reference value: 12.7+/- 2.08 U/g Hb); type: organism-based; set-up: dose 300 mg/kg, route oral; settings: in vivo, 240 h
Mus musculus [3] = test: Toxicity in Mus musculus albino (mouse) assessed as GSH activity at 300 mg/kg, po for 10 days (reference value: 59.57 +/- 5.10 %); type: organism-based; set-up: dose 300 mg/kg, route oral; settings: in vivo, 240 h
Mus musculus [4] = test: Toxicity in Mus musculus albino (mouse) assessed as serum TBARS level at 300 mg/kg, po for 10 days (reference value: 4.35 +/- 0.86 U/l); type: organism-based; set-up: dose 300 mg/kg, route oral; settings: in vivo, 240 h
Mus musculus [5] = test: Toxicity in Mus musculus albino (mouse) assessed as serum LDH level at 300 mg/kg, po for 10 days (reference value: 217.84 +/- 13.36 U/l); type: organism-based; set-up: dose 300 mg/kg, route oral; settings: in vivo, 240 h
Mus musculus [6] = test: Toxicity in Mus musculus albino (mouse) assessed as serum gamma-glutamyl transferase level at 300 mg/kg, po for 10 days (reference value: 4.43 +/- 0.31 U/l); type: organism-based; set-up: dose 300 mg/kg, route oral; settings: in vivo, 240 h
Mus musculus [7] = test: Toxicity in Mus musculus albino (mouse) assessed as serum ALP level at 300 mg/kg, po for 10 days (reference value: 31.63 +/- 3.73 U/l); type: organism-based; set-up: dose 300 mg/kg, route oral; settings: in vivo, 240 h
Mus musculus [8] = test: Toxicity in Mus musculus albino (mouse) assessed as serum SGPT level at 300 mg/kg, po for 10 days (reference value: 35.82 +/- 5.26 U/l); type: organism-based; set-up: dose 300 mg/kg, route oral; settings: in vivo, 240 h
Mus musculus [9] = test: Toxicity in Mus musculus albino (mouse) assessed as serum SGOT level at 300 mg/kg, po for 10 days (reference value: 9.74 +/- 1.73 U/l); type: organism-based; set-up: dose 300 mg/kg, route oral; settings: in vivo, 240 h
Mus musculus [10] = test: Toxicity in Mus musculus albino (mouse) assessed as drop in temperature at extremeties at 70 to 410 mg/kg, ip; type: organism-based; set-up: dose 70-410 mg/kg, route intraperitoneal; settings: in vivo
Mus musculus [11] = test: Toxicity in Mus musculus albino (mouse) assessed as bluish toe at 70 to 410 mg/kg, ip; type: organism-based; set-up: dose 70-410 mg/kg, route intraperitoneal; settings: in vivo
Mus musculus [12] = test: Toxicity in Mus musculus albino (mouse) assessed as bluish skin at 70 to 410 mg/kg, ip; type: organism-based; set-up: dose 70-410 mg/kg, route intraperitoneal; settings: in vivo
Mus musculus [13] = test: Toxicity in Mus musculus albino (mouse) assessed as brownish eye mucus at 70 to 410 mg/kg, ip; type: organism-based; set-up: dose 70-410 mg/kg, route intraperitoneal; settings: in vivo
Mus musculus [14] = test: Toxicity in Mus musculus albino (mouse) assessed as tremor inhind limbs at 70 to 410 mg/kg, ip; type: organism-based, Limb; set-up: dose 70-410 mg/kg, route intraperitoneal; settings: in vivo
Mus musculus [15] = test: Toxicity in Mus musculus albino (mouse) assessed as general depression at 70 to 410 mg/kg, ip; type: organism-based; set-up: dose 70-410 mg/kg, route intraperitoneal; settings: in vivo
Mus musculus [16] = test: Toxicity in Mus musculus albino (mouse) assessed as increase in heart rate at 70 to 410 mg/kg, ip; type: organism-based; set-up: dose 70-410 mg/kg, route intraperitoneal; settings: in vivo
Mus musculus [17] = test: Toxicity in Mus musculus albino (mouse) assessed as rapid respiration at 70 to 410 mg/kg, ip; type: organism-based; set-up: dose 70-410 mg/kg, route intraperitoneal; settings: in vivo
Mus musculus [18] = test: Toxicity in Mus musculus albino (mouse) assessed as drop in temperature at extremeties at 80 to 375 mg/kg, ip; type: organism-based; set-up: dose 80-375 mg/kg, route intraperitoneal; settings: in vivo
Mus musculus [19] = test: Toxicity in ip dosed Mus musculus albino (mouse) assessed as mortality measured per gram body weight; type: organism-based; settings: in vivo
Mus musculus [20] = test: Anti-inflammatory activity in Mus musculus albino (mouse) assessed as inhibition of formalin-induced paw swelling at 30 mg/kg, po administered 30 min prior formalin challenge measured after 120 min post challenge (reference value: 9.83 +/- 0.071 mm/min); type: functional
Mus musculus [21] = test: Anti-inflammatory activity in Mus musculus albino (mouse) assessed as inhibition of formalin-induced paw swelling at 30 mg/kg, po administered 30 min prior formalin challenge measured after 90 min post challenge (reference value: 9.5 +/- 0.04 mm/min); type: functional
Mus musculus [22] = test: Anti-inflammatory activity in Mus musculus albino (mouse) assessed as inhibition of formalin-induced paw swelling at 30 mg/kg, po administered 30 min prior formalin challenge measured after 60 min post challenge (reference value: 9.73 +/- 0.06 mm/min); type: functional
Mus musculus [23] = test: Anti-inflammatory activity in Mus musculus albino (mouse) assessed as inhibition of formalin-induced paw swelling at 30 mg/kg, po administered 30 min prior formalin challenge measured after 30 min post challenge (reference value: 9.46 +/- 0.035 mm/min); type: functional
Mus musculus [24] = test: Toxicity in Mus musculus albino (mouse) assessed as drop in temperature at extremeties at 90 to 340 mg/kg, ip; type: organism-based; set-up: dose 90-340 mg/kg, route intraperitoneal; settings: in vivo
Mus musculus [25] = test: Toxicity in Mus musculus albino (mouse) assessed as bluish toe at 90 to 340 mg/kg, ip; type: organism-based; set-up: dose 90-340 mg/kg, route intraperitoneal; settings: in vivo
Mus musculus [26] = test: Toxicity in Mus musculus albino (mouse) assessed as bluish skin at 90 to 340 mg/kg, ip; type: organism-based; set-up: dose 90-340 mg/kg, route intraperitoneal; settings: in vivo
Mus musculus [27] = test: Toxicity in Mus musculus albino (mouse) assessed as brownish eye mucus at 90 to 340 mg/kg, ip; type: organism-based; set-up: dose 90-340 mg/kg, route intraperitoneal; settings: in vivo
Mus musculus [28] = test: Toxicity in Mus musculus albino (mouse) assessed as tremor inhind limbs at 90 to 340 mg/kg, ip; type: organism-based, Limb; set-up: dose 90-340 mg/kg, route intraperitoneal; settings: in vivo
Mus musculus [29] = test: Toxicity in Mus musculus albino (mouse) assessed as general depression at 90 to 340 mg/kg, ip; type: organism-based; set-up: dose 90-340 mg/kg, route intraperitoneal; settings: in vivo
Mus musculus [30] = test: Toxicity in Mus musculus albino (mouse) assessed as rapid respiration at 90 to 340 mg/kg, ip; type: organism-based; set-up: dose 90-340 mg/kg, route intraperitoneal; settings: in vivo
Mus musculus [31] = test: Toxicity in Mus musculus albino (mouse) assessed as increase in heart rate at 90 to 340 mg/kg, ip; type: organism-based; set-up: dose 90-340 mg/kg, route intraperitoneal; settings: in vivo

| Compound | Activity (Mus musculus [1]) [U/g Hb] | Activity (Mus musculus [2]) [U/g Hb] | Activity (Mus musculus [3]) [%] | Activity (Mus musculus [4]) [nmol/mL] | Activity (Mus musculus [5]) [U/L] | Activity (Mus musculus [6]) [U/L] | Activity (Mus musculus [7]) [U/L] | Activity (Mus musculus [8]) [U/L] | Activity (Mus musculus [9]) [U/L] | Activity (Mus musculus [19]) [millimeter/min] | Activity (Mus musculus [20]) [millimeter/min] | Activity (Mus musculus [21]) [millimeter/min] | Activity (Mus musculus [22]) [millimeter/min] | Activity (Mus musculus [23]) [millimeter/min] | further results |
| --- | --- | --- | --- | --- | --- | --- | --- | --- | --- | --- | --- | --- | --- | --- | --- |
| CC(=O)NS(=O)(=O)c1ccc(-n2c(-c3ccccc3O)nn3c(=O)c4ccccc4nc23)cc1 | 180 | 12.4 | 60.12 | 4.11 | 211.27 | 4.36 | 33.26 | 28.44 | 11.1 | 213.25 | 6.02 | 6.83 | 6.11 | 6.43 | Activity (Mus musculus [10]): Toxic; Activity (Mus musculus [11]): Toxic; Activity (Mus musculus [12]): Toxic; Activity (Mus musculus [13]): Toxic; Activity (Mus musculus [14]): Toxic; Activity (Mus musculus [15]): Toxic; Activity (Mus musculus [16]): Toxic; Activity (Mus musculus [17]): Toxic; Activity (Mus musculus [18]): Toxic |
| CCOC(=O)c1nn2c(=O)c3ccccc3nc2n1-c1ccc(S(=O)(=O)NC(C)=O)cc1 | 177 | 14 | 58.63 | 4.02 | 215.78 | 4.51 | 28.95 | 31.24 | 10.66 | 235 | 5.95 | 6 | 6.17 | 6.37 | Activity (Mus musculus [24]): Toxic; Activity (Mus musculus [25]): Toxic; Activity (Mus musculus [26]): Toxic; Activity (Mus musculus [27]): Toxic; Activity (Mus musculus [28]): Toxic; Activity (Mus musculus [29]): Toxic; Activity (Mus musculus [30]): Toxic; Activity (Mus musculus [31]): Toxic |
